These results are taken from patent US8163756B2 (priority 2004, dated 2012).

Molecules are shown by their SMILES.

What all share (type): biochemical
For one experiment, the target named is KDR kinase (Homo sapiens, UniProt P35968, DEL940-989/E990V). Description: KDR kinase assay K2 (as K1, 2.1 nM enzyme, 2 h pre-incubation, 1.0 mM ATP). The following applies: Method K2; read-out: KDR Data (IC50). As for the experimental part: IC50 values were calculated from a series of percent inhibition values determined at a range of inhibitor concentrations using software routines as implemented in the GraphPad Prism software package.
Chain of KDR kinase (P35968 with tags, fused parts or gaps DEL940-989/E990V): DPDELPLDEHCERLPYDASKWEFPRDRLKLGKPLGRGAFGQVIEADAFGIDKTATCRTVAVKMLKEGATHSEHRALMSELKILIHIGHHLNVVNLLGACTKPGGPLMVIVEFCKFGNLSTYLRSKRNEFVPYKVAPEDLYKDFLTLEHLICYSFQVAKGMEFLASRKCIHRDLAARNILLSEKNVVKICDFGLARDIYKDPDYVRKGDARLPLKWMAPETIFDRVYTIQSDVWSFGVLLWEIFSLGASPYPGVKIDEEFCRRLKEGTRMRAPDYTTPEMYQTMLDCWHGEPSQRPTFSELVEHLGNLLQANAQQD

The target in another experiment is B-Raf(V599E) kinase (Homo sapiens, UniProt P15056, V600E). Description: B-Raf(V599E) kinase assay B1 (construct 1, MEK1 substrate, coupled spectrophotometric). As for the experimental part: The test compounds were incubated with the reaction mixtureat 30° C. for 2 h. […] The reaction rate was calculated using the […] time frame. […] IC50 values were calculated from a series of percent inhibition values determined at a range of inhibitor concentrations using software routines as implemented in the GraphPad Prism software package.
Chain of B-Raf(V599E) kinase (P15056 with tags, fused parts or gaps V600E): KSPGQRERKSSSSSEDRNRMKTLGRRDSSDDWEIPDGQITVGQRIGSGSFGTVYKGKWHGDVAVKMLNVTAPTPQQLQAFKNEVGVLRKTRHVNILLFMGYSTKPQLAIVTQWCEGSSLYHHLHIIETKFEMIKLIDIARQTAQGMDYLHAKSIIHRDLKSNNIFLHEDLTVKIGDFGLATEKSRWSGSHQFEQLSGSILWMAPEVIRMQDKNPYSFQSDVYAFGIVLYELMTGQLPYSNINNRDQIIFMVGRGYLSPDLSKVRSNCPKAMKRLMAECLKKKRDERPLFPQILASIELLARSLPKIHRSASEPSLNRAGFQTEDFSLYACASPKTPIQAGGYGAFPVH

For experiment [1], the target named is phosphorylated p-38-alpha kinase (Homo sapiens, UniProt Q16539). Description: P-38 alpha kinase assay P1 (coupled spectrophotometric, 2 h pre-incubation). Conditions: method P1 (2 h pre-incubation); read-out: P-38 Data.
Chain of phosphorylated p-38-alpha kinase (Q16539 1-360 isoform Q16539-2): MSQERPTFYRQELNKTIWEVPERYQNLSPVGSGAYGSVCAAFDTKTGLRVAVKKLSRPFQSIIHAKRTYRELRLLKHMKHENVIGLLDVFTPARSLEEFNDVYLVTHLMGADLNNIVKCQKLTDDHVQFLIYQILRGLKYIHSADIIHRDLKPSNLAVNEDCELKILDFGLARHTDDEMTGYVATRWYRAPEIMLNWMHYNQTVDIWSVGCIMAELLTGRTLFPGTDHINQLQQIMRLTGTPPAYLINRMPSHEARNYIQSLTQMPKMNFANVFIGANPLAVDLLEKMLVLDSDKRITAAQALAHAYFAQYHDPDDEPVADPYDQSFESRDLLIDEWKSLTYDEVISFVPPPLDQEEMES

As for `CC(C)(C)c1cc(NC(=O)Nc2ccc(Cl)cc2)n(-c2cccc(CN3C(=O)C(=O)NS3(=O)=O)c2)n1` [Example 225, 1-{5-t-butyl-2-[3-(1,1,3,4-tetraoxo-1λ^6-[1,2,5]thiadiazolidin-2-ylmethyl)phenyl]-2H-pyrazol-3-yl}-3-(4-chlorophenyl)urea], the results for the IC50 on KDR kinase and at B-Raf(V599E) kinase were 9600 nM and 170 nM, respectively.
Consider `CC(C)(C)c1cc(NC(=O)Nc2cc(F)cc(F)c2F)n(-c2cccc(C#N)c2)n1` [Example 209, 1-(3-t-butyl-1-(3-cyanophenyl)-1H-pyrazol-5-yl)-3-(2,3,5-trifluorophenyl)urea], for which the IC50 at KDR kinase stood at 260 nM.
The same measure, in the same setting: then `CC(C)(C)c1cc(NC(=O)Nc2ccc(Cl)cc2)n(-c2cccc(CCO)c2)n1` [Example 342, 1-{3-t-butyl-1-[3-(2-hydroxyethyl)phenyl]-1H-pyrazol-5-yl}-3-(4-chlorophenyl)-urea], with 5700 nM.
Same read-out and setting: then `COc1cccc(-n2nc(C(C)(C)C)cc2NC(=O)Nc2ccc([N+](=O)[O-])cc2)c1` [Example 338, 1-(3-t-butyl-1-(3-methoxyphenyl)-1H-pyrazol-5-yl)-3-(4-nitrophenyl)urea], with 5000 nM.
For the compound `CC(C)(C)c1cc(NC(=O)Nc2cccc(Cl)c2Cl)n(-c2cccc(CC(=O)N3CCC(C(=O)O)CC3)c2)n1` [Example 345, 1-[2-(3-{3-t-butyl-5-[3-(2,3-dichlorophenyl)ureido]-1H-pyrazol-1-yl}phenyl)acetyl]piperidine-4-carboxylic acid], the values for the IC50 (in experiment [1]; at KDR kinase) were 19 nM and 2900 nM, respectively.
Regarding `CC(C)(C)c1cc(NC(=O)Nc2ccc(Cl)cc2)n(-c2cccc(CNC(=O)N3CCOCC3)c2)n1` [Example 343, 1-(3-t-butyl-1-{3-[(morpholine-4-carboxamido)methyl]phenyl}-1H-pyrazol-5-yl)-3-(4-chlorophenyl)urea], the IC50 at KDR kinase turned out to be 18000 nM.
For the compound `CCOC(=O)C1CCN(C(=O)Cc2ccc(-n3nc(C(C)(C)C)cc3NC(=O)Nc3cccc(Cl)c3Cl)cc2)CC1` [Example 497], the values for the IC50 on KDR kinase and against B-Raf(V599E) kinase were 1200 nM and 47 nM, respectively.
`CC(C)(C)c1cc(NC(=O)Nc2cccc(F)c2F)n(-c2ccc(CC(=O)O)cc2)n1` [Example 382, 2-(4-(3-t-butyl-5-(3-(2,3-difluorophenyl)ureido)-1H-pyrazol-1-yl)phenyl)acetic acid]: the IC50 at KDR kinase came to 10300 nM; on B-Raf(V599E) kinase, 77 nM.
For `CC(C)(C)c1cc(NC(=O)Nc2cccc(Cl)c2Cl)n(-c2cccc(Br)c2)n1` [Example 49, 1-(1-(3-bromophenyl)-3-t-butyl-1H-pyrazol-5-yl)-3-(2,3-dichlorophenyl)urea] the same measures were 86 nM and 3.8 nM.
For `CC(C)(C)c1cc(NC(=O)Nc2ccccc2F)n(-c2cccc(CCC(=O)O)c2)n1` [Example 265, 3-(3-{3-t-butyl-5-[3-(2-fluorophenyl)ureido]-1H-pyrazol-1-yl}-phenyl)propionic acid] the same measures were 9800 nM and 14 nM.
For the compound `CC(C)(C)c1cc(NC(=O)Nc2ccc(F)c(F)c2F)n(-c2cccc(C#N)c2)n1` [Example 210, 1-(3-t-butyl-1-(3-cyanophenyl)-1H-pyrazol-5-yl)-3-(2,3,4-trifluorophenyl)urea], the IC50 in experiment [1] came to 24 nM; on KDR kinase, 110 nM.
Regarding `CC(C)(C)c1cc(NC(=O)Nc2cccc(F)c2F)n(-c2ccc3c(c2)CCNC(=O)C3)n1` [Example 334, 1-(3-t-butyl-1-(2-oxo-2,3,4,5-tetrahydro-1H-benzo[d]azepin-7-yl)-1 H-pyrazol-5-yl)-3-(2,3-difluorophenyl)urea], the IC50 on KDR kinase is 3400 nM; on B-Raf(V599E) kinase, 11 nM.
As for `CC(C)(C)c1cc(NC(=O)Nc2ccc(F)c(F)c2)n(-c2cccc(C#N)c2)n1` [Example 206, 1-(3-t-butyl-1-(3-cyanophenyl)-1H-pyrazol-5-yl)-3-(3,4-difluorophenyl)urea], the IC50 on KDR kinase was 480 nM.
As for `CC(C)(C)c1cc(NC(=O)Nc2cccc(F)c2F)n(-c2ccc3ncccc3c2)n1` [Example 283, 1-(3-t-butyl-1-(quinolin-6-yl)-1H-pyrazol-5-yl)-3-(2,3-difluorophenyl)urea], the IC50 is 440 nM on KDR kinase and 6.4 nM against B-Raf(V599E) kinase.
For the compound `CC(C)(C)c1cc(NC(=O)Nc2cccc3ccccc23)n(-c2cccc(CCO)c2)n1` [Example 341, 1-{3-t-butyl-1-[3-(2-hydroxyethyl)phenyl]-1H-pyrazol-5-yl}-3-(naphthalen-1-yl)urea], the values for the IC50 (in experiment [1]; on KDR kinase) were 27 nM and 5500 nM, respectively.
In the case of `CCOC(=O)C1CCCN(C(=O)Cc2cccc(-n3nc(C(C)(C)C)cc3NC(=O)Nc3cccc(Cl)c3Cl)c2)C1` (centres unmarked) [Example 397, ethyl 1-[2-(3-{3-t-butyl-5-[3-(2,3-dichlorophenyl)ureido]-1H-pyrazol-1-yl}phenyl)acetyl]piperidine-3-carboxylate], the IC50 stood at 3400 nM at KDR kinase and 57 nM against B-Raf(V599E) kinase.
`CC(C)(C)c1cc(NC(=O)Nc2cccc3ccccc23)n(-c2ccc3c(c2)C(=O)NCC3)n1` [Example 348, 1-[3-t-butyl-1-(1-oxo-1,2,3,4-tetrahydroisoquinolin-7-yl)-1 H-pyrazol-5-yl]-3-(naphthalen-1-yl)urea]: the IC50 on KDR kinase was 16500 nM.
Take `CC(C)(C)c1cc(NC(=O)Nc2cccc(Cl)c2Cl)n(-c2cccc(CC(=O)N3CCS(=O)(=O)CC3)c2)n1` [Example 396, 1-(3-t-butyl-1-{3-[2-(1,1-dioxo-1[…]6-thiomorpholin-4-yl)-2-oxoethyl]phenyl}-1H-pyrazol-5-yl)-3-(2,3-dichlorophenyl)urea]: the IC50 at KDR kinase is 3100 nM; against B-Raf(V599E) kinase it was 32 nM.
Turning to `CC(C)(C)c1cc(NC(=O)Nc2ccc(F)cc2F)n(-c2ccc3c(c2)CCN(S(C)(=O)=O)C3)n1` [Example 200, 1-(3-t-butyl-1-(2-(methylsulfonyl)-1,2,3,4-tetrahydroisoquinolin-6-yl)-1H-pyrazol-5-yl)-3-(2,4-difluorophenyl)urea], the IC50 at KDR kinase amounted to 2700 nM.
With `CC(C)(C)c1cc(NC(=O)N[C@H]2CCc3ccccc32)n(-c2ccc3c(c2)CCNC3)n1` [Example 199, 1-(3-t-butyl-1-(1,2,3,4-tetrahydroisoquinolin-6-yl)-1H-pyrazol-5-yl)-3-((S)-2,3-dihydro-1H-inden-1-yl)urea], on KDR kinase, the IC50 stood at 34400 nM.
In the case of `COc1cccc(-n2nc(C(C)(C)C)cc2NC(=O)Nc2cccc(Br)c2)c1` [Example 232, 1-(3-t-butyl-1-(3-methoxyphenyl)-1H-pyrazol-5-yl)-3-(3-bromophenyl)urea], the IC50 at KDR kinase stood at 2600 nM; at B-Raf(V599E) kinase it was 38 nM.
For the compound `Cn1[nH]c(=O)n(Cc2cccc(-n3nc(C(C)(C)C)cc3NC(=O)Nc3cccc(Cl)c3Cl)c2)c1=O` [Example 268, 1-{5-t-butyl-2-[3-(1-methyl-3,5-dioxo-[1,2,4]triazolidin-4-ylmethyl)-phenyl]-2H-pyrazol-3-yl}-3-(2,3-dichloro-phenyl)-urea], the results for the IC50 on KDR kinase and against B-Raf(V599E) kinase were 2600 nM and 11 nM, respectively.
On to `CC(C)(C)c1cc(NC(=O)Nc2cccc3ccccc23)n(-c2ccc3c(c2)CCC(=O)N3)n1` [Example 198, 1-(3-t-butyl-1-(2-oxo-1,2,3,4-tetrahydroquinolin-6-yl)-1H-pyrazol-5-yl)-3-(naphthalen-1-yl)urea], for which the IC50 in experiment [1] came out at 59 nM; on KDR kinase, 1300 nM.
Regarding `CCOC(=O)C1CCCN(C(=O)Cc2ccc(-n3nc(C(C)(C)C)cc3NC(=O)Nc3cccc(Cl)c3Cl)cc2)C1` (centres unmarked) [Example 346, ethyl 1-[2-(4-{3-t-butyl-5-[3-(2,3-dichlorophenyl)ureido]-1H-pyrazol-1-yl}phenyl)acetyl]piperidine-3-carboxylate], the IC50 on KDR kinase came to 1700 nM.
The same measure, in the same setting: then `CC(C)(C)c1cc(NC(=O)Nc2cc(F)cc(F)c2)n(-c2cccc(C#N)c2)n1` [Example 208, 1-(3-t-butyl-1-(3-cyanophenyl)-1H-pyrazol-5-yl)-3-(3,5-difluorophenyl)urea], with 470 nM.
In the case of `CC(C)(C)c1cc(NC(=O)Nc2cccc3ccccc23)n(-c2ccc3c(c2)CNCC3)n1` [Example 349], the IC50 was found to be 30 nM in experiment [1] and 4100 nM at KDR kinase.
Turning to `CC(C)(C)c1cc(NC(=O)Nc2ccc(Cl)cc2)n(-c2ccc3ncccc3c2)n1` [Example 339, 1-[3-t-butyl-1-(quinolin-6-yl)-1H-pyrazol-5-yl]-3-(4-chlorophenyl)urea], the IC50 on KDR kinase amounted to 1200 nM.
`CC(C)(C)c1cc(NC(=O)Nc2cccc(F)c2F)n(-c2ccc(CCO)cc2)n1` [Example 262, 1-(3-t-butyl-1-(4-(2-hydroxyethyl)phenyl)-1H-pyrazol-5-yl)-3-(2,3-difluoro-phenyl)urea]: the IC50 at KDR kinase is 2700 nM; at B-Raf(V599E) kinase, 34 nM.
Take `CC(C)(C)c1cc(NC(=O)Nc2ccc(F)c(F)c2F)n(-c2ccc3[nH]c(=O)ccc3c2)n1` [Example 333, 1-(3-t-butyl-1-(2-oxo-1,2-dihydroquinolin-6-yl)-1H-pyrazol-5-yl)-3-(2,3,4-trifluorophenyl)urea]: the IC50 was 230 nM at KDR kinase and 3.4 nM against B-Raf(V599E) kinase.
As to `COc1cccc(-n2nc(C(C)(C)C)cc2NC(=O)Nc2ccc(Cl)c(Cl)c2)c1` [Example 337, 1-(3-t-butyl-1-(3-methoxyphenyl)-1H-pyrazol-5-yl)-3-(3,4-dichlorophenyl)urea], at KDR kinase, the IC50 was 2000 nM.
As to `CC(C)(C)c1cc(NC(=O)Nc2cc(F)c(F)cc2F)n(-c2ccc3[nH]c(=O)ccc3c2)n1` [Example 330], the IC50 was 390 nM on KDR kinase and 3.2 nM against B-Raf(V599E) kinase.
